pEC50: −log10 of the molar value.
What was measured:
RIPK1 = target: T1, RIPK1 (Homo sapiens, UniProt Q13546); test: RIPK1 inhibitory activity, DiscoverX scanMAX kinase panel (% control); format: binding; conditions: drug concentration 1 μM in DMSO, <35% counted as active, read-out: control percentage (% control) RIPK1
T1 construct: purchased DiscoverX
T1 sequence (Q13546 1-671): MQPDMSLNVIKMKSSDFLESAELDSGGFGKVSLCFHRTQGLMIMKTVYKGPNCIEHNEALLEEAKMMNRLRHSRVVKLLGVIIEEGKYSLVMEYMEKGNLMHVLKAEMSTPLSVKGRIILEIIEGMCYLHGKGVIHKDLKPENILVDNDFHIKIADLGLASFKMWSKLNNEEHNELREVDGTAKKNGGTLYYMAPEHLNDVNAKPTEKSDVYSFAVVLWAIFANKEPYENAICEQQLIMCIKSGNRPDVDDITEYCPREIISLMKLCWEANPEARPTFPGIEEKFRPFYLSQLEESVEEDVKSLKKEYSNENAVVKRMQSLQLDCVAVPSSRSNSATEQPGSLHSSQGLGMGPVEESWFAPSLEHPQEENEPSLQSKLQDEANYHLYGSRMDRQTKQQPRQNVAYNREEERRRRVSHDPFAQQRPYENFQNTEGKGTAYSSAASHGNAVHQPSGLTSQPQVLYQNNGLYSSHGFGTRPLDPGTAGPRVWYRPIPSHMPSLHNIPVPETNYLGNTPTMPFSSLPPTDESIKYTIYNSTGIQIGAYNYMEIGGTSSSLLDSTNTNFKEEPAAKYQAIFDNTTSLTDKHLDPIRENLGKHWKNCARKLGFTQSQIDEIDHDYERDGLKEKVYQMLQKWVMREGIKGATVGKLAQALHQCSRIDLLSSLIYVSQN
Protocol: To evaluate the RIPK1 inhibitory activity of a compound according to the present invention, the following experiment was performed. Specifically, for Examples 3 and 30 selected from the compounds of Examples of the present invention, enzyme (kinase) selectivity was measured by DiscoverX, and the experiment was conducted using a panel for scanMAX™ kinase analysis. Here, the enzyme was treated with a drug having a concentration of 1 μM in DMSO, and a control percentage (% control) was determined in the same manner as Formula 1 below.
Here, the positive control refers to a compound showing a control percentage of 0%, and the negative control is DMSO showing a control percentage of 100%. In addition, in terms of the enzyme selectivity of the present invention, when the control percentage with respect to an enzyme is <35% (i.e., less than 35%), it was determined that the compound has activity against the corresponding enzyme.

HT-29 cells = test: Cell necrosis inhibitory activity under necroptosis-inducing conditions (TNF-α, Z-VAD-FMK, LCL161) in HT-29 cells, Cell Titer-Glo; format: cell-based; conditions: Homo sapiens, 100 ng/mL TNF-α + 25 μM Z-VAD-FMK + Smac mimetic LCL161, 24 hours, cell viability
Summary of the method: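 HT-29 cells seeded 24 h, then necroptosis induced with 100 ng/mL TNF-α, 25 μM Z-VAD-FMK and 10 μM LCL161 for 10 min before compound (11 points, 3-fold, top 0.1 or 1 μM; 0.05% DMSO). After 24 h, viability by CellTiter-Glo luminescence relative to untreated controls gave EC50 (nM).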

Row | remaining binding at 1 µM (RIPK1) | Compound | pEC50 (HT-29 cells)
1 | 1% | COc1ncc(-c2ccc3nc(NC(C)=O)cn3n2)cc1NC(=O)N1OCC[C@H]1c1ccccc1 [Example 3, (S)-N-(5-(2-acetamidoimidazo[1,2-b]pyridazin-6-yl)-2-methoxypyridin-3-yl)-3-phenylisoxazolidine-2-carboxamide] | 9.22
2 | 0% | COc1ncc(-c2ccc3nc(N)nn3c2)cc1NC(=O)N1OCC[C@H]1c1ccccc1 [Example 30, (S)-N-(5-(2-amino-[1,2,4]triazolo[1,5-a]pyridin-6-yl)-2-methoxypyridin-3-yl)-3-phenylisoxazolidine-2-carboxamide] | 8.42
3 |  | CNC(=O)c1n[nH]c2cc(-c3cccc(NC(=O)N4OCC[C@H]4c4ccccc4)c3)ccc12 [Example 17, (S)-N-(3-(3-(methylcarbamoyl)-1H-indazol-6-yl)phenyl)-3-phenylisoxazolidine-2-carboxamide] | 10.00
4 |  | Cc1ccc(-c2ccc3nc(N)nn3c2)cc1NC(=O)N1OCC[C@H]1c1ccc(Cl)cc1 [Example 67, (S)-N-(5-(2-amino-[1,2,4]triazolo[1,5-a]pyridin-6-yl)-2-methylphenyl)-3-(4-chlorophenyl)isoxazolidine-2-carboxamide] | 9.40
5 |  | C#Cc1cnc2ccc(-c3ccc(C)c(NC(=O)N4OCC[C@H]4c4ccccc4)c3)cn12 [Example 116, (S)-N-(5-(3-ethynylimidazo[1,2-a]pyridin-6-yl)-2-methylphenyl)-3-phenylisoxazolidine-2-carboxamide] | 9.00
6 |  | Cc1ccc(-c2ccc3nc(N)sc3n2)cc1NC(=O)N1OCC[C@H]1c1ccccc1 [Example 98, (S)-N-(5-(2-aminothiazolo[5,4-b]pyridin-5-yl)-2-methylphenyl)-3-phenylisoxazolidine-2-carboxamide] | 9.52
7 |  | Cc1ccc(-c2ccc3nc(N)nn3c2)cc1NC(=O)N1OCC[C@H]1c1cccc(F)c1 [Example 60, (S)-N-(5-(2-amino-[1,2,4]triazolo[1,5-a]pyridin-6-yl)-2-methylphenyl)-3-(3-fluorophenyl)isoxazolidine-2-carboxamide] | 9.40
8 |  | Cc1ncc(-c2ccc3nc(N)nn3c2)cc1NC(=O)N1OCC[C@H]1c1cccc(Cl)c1 [Example 39, (S)-N-(5-(2-amino-[1,2,4]triazolo[1,5-a]pyridin-6-yl)-2-methylpyridin-3-yl)-3-(3-chlorophenyl)isoxazolidine-2-carboxamide] | 9.05
9 |  | COc1ncc(-c2ccc3nc(NC(C)=O)sc3n2)cc1NC(=O)N1OCC[C@H]1c1ccccc1 [Example 14, (S)-N-(5-(2-acetamidothiazolo[5,4-b]pyridin-5-yl)-2-methoxypyridin-3-yl)-3-phenylisoxazolidine-2-carboxamide] | 9.15
10 |  | Cc1ccc(-c2ccn3nc(N)nc3c2)cc1NC(=O)N1OCC[C@H]1c1ccc(F)cc1 [Example 64, (S)-N-(5-(2-amino-[1,2,4]triazolo[1,5-a]pyridin-7-yl)-2-methylphenyl)-3-(4-fluorophenyl)isoxazolidine-2-carboxamide] | 9.70
11 |  | COc1ncc(-c2ccn3nc(N)nc3c2)cc1NC(=O)N1OCC[C@H]1c1cccc(F)c1 [Example 53, (S)-N-(5-(2-amino-[1,2,4]triazolo[1,5-a]pyridin-7-yl)-2-methoxypyridin-3-yl)-3-(3-fluorophenyl)isoxazolidine-2-carboxamide] | 9.30
12 |  | CN(C)C1CCC(NC(=O)c2n[nH]c3cc(-c4cccc(NC(=O)N5OCC[C@H]5c5ccccc5)c4)ccc23)CC1 (stereo partly drawn) [Example 20, (S)-N-(3-(3-((4-(dimethylamino)cyclohexyl)carbamoyl)-1H-indazol-6-yl)phenyl)-3-phenylisoxazolidine-2-carboxamide] | 9.52
13 |  | COc1ccc(-c2ccc3nc(NC(C)=O)cn3n2)cc1NC(=O)N1OCC[C@H]1c1ccccc1 [Example 8, (S)-N-(5-(2-acetamidoimidazo[1,2-b]pyridazin-6-yl)-2-methoxyphenyl)-3-phenylisoxazolidine-2-carboxamide] | 9.40
14 |  | Cc1ccc(-c2ccn3nc(N)cc3c2)cc1NC(=O)N1OCC[C@H]1c1ccccc1 [Example 126, (S)-N-(5-(2-aminopyrazolo[1,5-a]pyridin-5-yl)-2-methylphenyl)-3-phenylisoxazolidine-2-carboxamide] | 9.40
15 |  | Cc1ncc(-c2ccn3nc(N)nc3c2)cc1NC(=O)N1OCC[C@H]1c1ccccc1 [Example 50, (S)-N-(5-(2-amino-[1,2,4]triazolo[1,5-a]pyridin-7-yl)-2-methylpyridin-3-yl)-3-phenylisoxazolidine-2-carboxamide] | 8.89
16 |  | CNC(=O)c1n[nH]c2cc(-c3cnc(OC)c(NC(=O)N4OCC[C@H]4c4ccccc4)c3)ccc12 [Example 22, (S)-N-(2-methoxy-5-(3-(methylcarbamoyl)-1H-indazol-6-yl)pyridin-3-yl)-3-phenylisoxazolidine-2-carboxamide] | 9.52
17 |  | Cc1ccc(-c2ccc3nc(NC(=O)C4CC4)sc3n2)cc1NC(=O)N1OCC[C@H]1c1ccc(C#N)cc1 [Example 94, (S)-3-(4-cyanophenyl)-N-(5-(2-(cyclopropanecarboxamido)thiazolo[5,4-b]pyridin-5-yl)-2-methylphenyl)isoxazolidine-2-carboxamide] | 9.52
18 |  | CC(=O)Nc1cn2nc(-c3cccc(NC(=O)N4OCC[C@H]4c4ccccc4)c3)ccc2n1 [Example 1, (S)-N-(3-(2-acetamidoimidazo[1,2-b]pyridazin-6-yl)phenyl)-3-phenylisoxazolidine-2-carboxamide] | 9.05
19 |  | Cc1ncc(-c2ccc3nc(N)nn3c2)cc1NC(=O)N1OCC[C@H]1c1cccc(C#N)c1 [Example 46, (S)-N-(5-(2-amino-[1,2,4]triazolo[1,5-a]pyridin-6-yl)-2-methylpyridin-3-yl)-3-(3-cyanophenyl)isoxazolidine-2-carboxamide] | 7.71
20 |  | COc1ncc(-c2ccc3nnn(C(C)C)c3c2)cc1NC(=O)N1OCC[C@H]1c1ccccc1 [Example 12, (S)-N-(5-(1-isopropyl-1H-benzo[d][1,2,3]triazol-6-yl)-2-methoxypyridin-3-yl)-3-phenylisoxazolidine-2-carboxamide] | 7.86
21 |  | COc1ncc(-c2cc(C(F)(F)F)c3c(N)ncnn23)cc1NC(=O)N1OCC[C@H]1c1ccccc1 [Example 129, (S)-N-(5-(4-amino-5-(trifluoromethyl)pyrrolo[2,1-f][1,2,4]triazin-7-yl)-2-methoxypyridin-3-yl)-3-phenylisoxazolidine-2-carboxamide] | 8.44
22 |  | Cc1ccc(-c2ccc3nccn3n2)cc1NC(=O)N1OCC[C@H]1c1ccccc1 [Example 112, (S)-N-(5-(imidazo[1,2-b]pyridazin-6-yl)-2-methylphenyl)-3-phenylisoxazolidine-2-carboxamide] | 8.48
23 |  | COc1ccc(-c2ccn3nc(N)nc3c2)c(F)c1NC(=O)N1OCC[C@H]1c1ccccc1 [Example 103, (S)-N-(3-(2-amino-[1,2,4]triazolo[1,5-a]pyridin-7-yl)-2-fluoro-6-methoxyphenyl)-3-phenylisoxazolidine-2-carboxamide] | 7.81

— patent publication US20250019373A1, “ARYL OR HETEROARYL DERIVATIVE, AND PHARMACEUTICAL COMPOSITION COMPRISING SAME AS ACTIVE INGREDIENT FOR PREVENTION OR TREATMENT OF KINASE-RELATED DISEASES” (VORONOI INC., priority 2021, published 2025)
